Reference: US20170106027A1, “COMPOSITIONS AND METHODS OF IMPROVING PERFORMANCE AND INTESTINAL HEALTH OF POULTRY” (Kemin Industries, Inc., priority 2015, published 2017)
Where “and” joins values, the source holds several entries; their conditions need not be identical. Equal values may be shown once. Read-outs that look alike come from different tables or passages of the source.

Columns and labels:
[1] = system: E. acervulina; assay type: in vivo, Cobb×Cobb 500 male broiler chicks; settings: scored d35, scale 0-4
[2] = system: E. maxima; assay type: in vivo, Cobb×Cobb 500 male broiler chicks; settings: scored d35, scale 0-4
[3] = system: E. tenella; assay type: in vivo, Cobb×Cobb 500 male broiler chicks; settings: scored d35, scale 0-4
[4] = system: mixed Eimeria challenge (E. acervulina, E. maxima, E. tenella); set-up: species or system Cobb×Cobb 500 male broiler chicks; settings: in vivo
[5] = system: E. acervulina; assay type: in vivo, Cobb×Cobb 500 male broiler chicks; settings: feces d35
[6] = system: E. maxima; assay type: in vivo, Cobb×Cobb 500 male broiler chicks; settings: feces d35
[7] = system: E. tenella; assay type: in vivo, Cobb×Cobb 500 male broiler chicks; settings: feces d35
[8] = system: Eimeria tenella sporozoites; assay: In vitro MTT assay of Eimeria tenella sporozoite viability
[9] = system: C. perfringens; assay type: in vivo, Cobb×Cobb 500 male broiler chicks
[10] = Treatments In (kept in basal diet d28-35)
[11] = Treatments Out (removed from basal diet d28-35)

Molecule | Average lesion score E. acervulina [1, 10] | Average lesion score E. acervulina [1, 11] | Average lesion score E. maxima [2, 10] | Average lesion score E. maxima [2, 11] | Average lesion score E. tenella [3, 10] | Average lesion score E. tenella [3, 11] | Average lesion score Overall [4] | Average oocysts per gram (OPG) in feces E. acervulina ([5]; Treatments In) [oocysts per gram] | Average oocysts per gram (OPG) in feces E. acervulina ([5]; Treatments Out) [oocysts per gram] | Average oocysts per gram (OPG) in feces E. maxima ([6]; Treatments In) [oocysts per gram] | Average oocysts per gram (OPG) in feces E. maxima ([6]; Treatments Out) [oocysts per gram] | Average oocysts per gram (OPG) in feces E. tenella ([7]; Treatments In) [oocysts per gram] | Average oocysts per gram (OPG) in feces E. tenella ([7]; Treatments Out) [oocysts per gram] | additional decrease of sporozoite viability ([8]; 100 ppm compared to 50 ppm) [%] | sporozoite viability (in words) ([8]; MTT assay, 50 and 100 ppm, salinomycin 60 ppm positive control) | mortality due to necrotic enteritis (in words) ([9]; C. perfringens challenged birds) | FCR (in words) ([9]; C. perfringens challenged broilers) | FCR (0-21 days) ([9]; challenged with C. perfringens d19, 20, 21, FCR adjusted for mortality)
CC[C@@H](C(=O)[C@@H](C)[C@@H](O)[C@H](C)[C@@H]1O[C@@H]([C@@H](CC)C(=O)O)CC[C@@H]1C)[C@H]1O[C@]2(C=C[C@@H](O)[C@]3(CC[C@@](C)([C@H]4CC[C@](O)(CC)[C@H](C)O4)O3)O2)[C@H](C)C[C@@H]1C [BioCox ®, salinomycin] | 0.95 | 1.50 | 0.60 | 0.78 | 1.05 | 1.00 | 0.87 and 1.09 | 734 | 19510 | 67 | 0 | 1167 | 1668 |  |  |  |  | 
N=C(N/N=C/c1ccc(Cl)cc1)N/N=C/c1ccc(Cl)cc1 [Robenz ®, Robenidine] | 0.45 | 1.38 | 0.30 | 0.68 | 2.30 | 1.00 | 1.02 | 1301 | 4869 | 0 | 600 | 1034 | 3468 |  |  |  |  | 
O=C(OC[C@H]1O[C@@H](OC(=O)c2cc(O)c(O)c(OC(=O)c3cc(O)c(O)c(O)c3)c2)[C@H](OC(=O)c2cc(O)c(O)c(OC(=O)c3cc(O)c(O)c(O)c3)c2)[C@@H](OC(=O)c2cc(O)c(O)c(OC(=O)c3cc(O)c(O)c(O)c3)c2)[C@@H]1OC(=O)c1cc(O)c(O)c(OC(=O)c2cc(O)c(O)c(O)c2)c1)c1cc(O)c(O)c(OC(=O)c2cc(O)c(O)c(O)c2)c1 [tannic acid] |  |  |  |  |  |  |  |  |  |  |  |  |  | 5 | reductions were greater |  |  | 
bacitracin methylene disalicylate [BMD] |  |  |  |  |  |  |  |  |  |  |  |  |  |  |  | reduced | improved FCR | 1.904
